According to patent US20020137929A1, “1 - (3-heterocyclylphenyl) isothiourea, -isourea, -guanidine and -amidine herbicidal agents” (Intellectual Property Department, BASF Aktiengesellschaft, priority 1998, published 2002):

What was measured:
AMBEL (Ragweed, Common) = assay: Postemergence herbicidal evaluation; assay type: in vivo, Ambrosia artemisifolia; settings: postemergence
Summary of the method: (§1)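 ~2-wk seedlings; postemergence spray, 40 psi; vehicle 1:1 acetone:water + 0.5% Tween 20; rate ≈0.0156–0.500 kg/ha; greenhouse hold; scored 4–5 wk after treatment, 0–9 scale vs control; repeat tests averaged.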

ZEAMX (Corn, Field) = assay: Preemergence herbicidal evaluation; assay type: in vivo, Zea mays; settings: rated 4-5 weeks after treatment
Excerpt: (§2) Results of herbicide evaluation are expressed on a rating scale (0-9). The scale is based upon a visual observation of plant stand, vigor, malformation, size, chlorosis and overall plant appearance as compared with a control.
(§3) The preemergence herbicidal activity of the test compounds of the present invention is exemplified by the following tests in which the seeds of a variety of monocotyledonous and dicotyledonous plants are separately mixed with potting soil and planted on top of approximately one inch of soil in separate pint cups. After planting, the cups are sprayed with the selected aqueous acetone solution containing test compound in sufficient quantity to provide the equivalent of about 0.0156 to 0.500 kg per hectare of test compound per cup. The treated cups are then placed on greenhouse benches, watered and cared for in accordance with conventional greenhouse procedures. From four to five weeks after treatment, the tests are terminated and each cup is examined and rated according to the rating system provided in Example 37.
(§4) The compounds evaluated are reported by compound number given in Example 37.

[1] = tested on: SAGPY (Arrowhead (Pygmaea)); assay: Preemergence weed control under flooded paddy conditions; assay type: in vivo, Sagittaria pygmaea; settings: rated 3-4 weeks after treatment
Summary of the method: (§5)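 First, seeds or propagules go into the top 0.5 cm of silt loam; next, water is held 1.5 to 3 cm over the soil; then compound (50/50 acetone/water) is pipetted into it at about 0.0313 to 0.500 kg/ha; finally plants are rated visually 0-9 after three to four weeks.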

MOOVA (Monochoria) = assay: as above; assay type: in vivo, Monochoria vaginalis; settings: rated 3-4 weeks after treatment
Summary of the method: as §5

[2] = tested on: IPOHE (Morningglory, Ivyleaf); assay: Postemergence herbicidal evaluation; assay type: in vivo, Ipomoea hederacea; settings: postemergence
Summary of the method: as §1

GALAP (Galium) = assay: Postemergence herbicidal evaluation; assay type: in vivo, Galium aparine; settings: postemergence
Summary of the method: as §1

[3] = tested on: TRZAWR (Wheat, Winter, cv Riband); assay: Preemergence herbicidal evaluation; assay type: in vivo, Triticum aestivum; settings: rated 4-5 weeks after treatment
Summary of the method: (§6)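 Each species is sown separately in potting soil over roughly an inch of soil before any emergence. The soil surface then receives an aqueous acetone spray delivering about 0.0156 to 0.500 kg/ha of compound. After four to five weeks, injury is scored from 0 to 9 relative to a control.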

[4] = tested on: GLXMAW (Soybean, Williams); assay: Preemergence herbicidal evaluation; assay type: in vivo, Glycine max, (L.) Merr. cv Williams; settings: rated 4-5 weeks after treatment
Summary of the method: as §6

ECHCG (Barnyardgrass) = assay: Preemergence herbicidal evaluation; assay type: in vivo, Echinochloa crus-galli; settings: rated 4-5 weeks after treatment
Summary of the method: as §6

[5] = tested on: IPOHE (Morningglory, Ivyleaf); assay: Preemergence herbicidal evaluation; assay type: in vivo, Ipomoea hederacea; settings: rated 4-5 weeks after treatment
Summary of the method: as §6

CASOB (Sicklepod) [6] = assay: Postemergence herbicidal evaluation; assay type: in vivo, Cassia obtusifolia; settings: postemergence
Summary of the method: as §1

CASOB (Sicklepod) [7] = assay: Preemergence herbicidal evaluation; assay type: in vivo, Cassia obtusifolia; settings: rated 4-5 weeks after treatment
Excerpt: as §2, §3, §4

ABUTH (Velvetleaf) = assay: Preemergence herbicidal evaluation; assay type: in vivo, Abutilon theophrasti; settings: rated 4-5 weeks after treatment
Excerpt: as §2, §3, §4

CC(C)COC(=O)CN1C(=O)CSC1=Nc1cc(-n2c(=O)cc(C(F)(F)F)n(C)c2=O)c(F)cc1Cl [Compound 121, Isobutyl 2-{{2-chloro-5-[3,6-dihydro-3-methyl-2,6-dioxo-4-(trifluoromethyl)-1(2H)-pyrimidinyl]-4-fluorophenyl}imino}-4-oxo-3-thiazolidineacetate]
1.0: Preemergence herbicidal rating GLXMAW ([4]; rate 0.1250 kg/ha) | Herbicidal rating CASOB (CASOB (Sicklepod) [6]; rate 0.0313 kg/ha)
9.0: Herbicidal rating AMBEL (AMBEL (Ragweed, Common); rate 0.0156 kg/ha) | Herbicidal rating AMBEL (AMBEL (Ragweed, Common); rate 0.0313 kg/ha) | Herbicidal rating AMBEL (AMBEL (Ragweed, Common); rate 0.0625 kg/ha) | herbicidal effect rating, MOOVA (MOOVA (Monochoria); 0.0313 kg/ha) | herbicidal effect rating, MOOVA (MOOVA (Monochoria); 0.0625 kg/ha) | herbicidal effect rating, MOOVA (MOOVA (Monochoria); 0.1250 kg/ha) | herbicidal effect rating, MOOVA (MOOVA (Monochoria); 0.2500 kg/ha) | Herbicidal rating IPOHE ([2]; rate 0.0156 kg/ha) | Herbicidal rating IPOHE ([2]; rate 0.0313 kg/ha) | Herbicidal rating IPOHE ([2]; rate 0.0625 kg/ha) | Preemergence herbicidal rating ECHCG (ECHCG (Barnyardgrass); rate 0.2500 kg/ha) | Preemergence herbicidal rating IPOHE ([5]; rate 0.2500 kg/ha) | Preemergence herbicidal rating CASOB (CASOB (Sicklepod) [7]; rate 0.1250 kg/ha) | Preemergence herbicidal rating CASOB (CASOB (Sicklepod) [7]; rate 0.2500 kg/ha) | Preemergence herbicidal rating ABUTH (ABUTH (Velvetleaf); rate 0.0156 kg/ha) | Preemergence herbicidal rating ABUTH (ABUTH (Velvetleaf); rate 0.0313 kg/ha) | Preemergence herbicidal rating ABUTH (ABUTH (Velvetleaf); rate 0.0625 kg/ha) | Preemergence herbicidal rating ABUTH (ABUTH (Velvetleaf); rate 0.1250 kg/ha) | Preemergence herbicidal rating ABUTH (ABUTH (Velvetleaf); rate 0.2500 kg/ha)
0.0: Preemergence herbicidal rating ZEAMX (ZEAMX (Corn, Field); rate 0.0156 kg/ha) | herbicidal effect rating, SAGPY ([1]; 0.0313 kg/ha) | Herbicidal rating GALAP (GALAP (Galium); rate 0.0156 kg/ha) | Herbicidal rating GALAP (GALAP (Galium); rate 0.0313 kg/ha) | Preemergence herbicidal rating TRZAWR ([3]; rate 0.0156 kg/ha) | Preemergence herbicidal rating GLXMAW ([4]; rate 0.0156 kg/ha) | Preemergence herbicidal rating GLXMAW ([4]; rate 0.0313 kg/ha) | Preemergence herbicidal rating GLXMAW ([4]; rate 0.0625 kg/ha) | Preemergence herbicidal rating ECHCG (ECHCG (Barnyardgrass); rate 0.0156 kg/ha) | Preemergence herbicidal rating ECHCG (ECHCG (Barnyardgrass); rate 0.0313 kg/ha) | Preemergence herbicidal rating IPOHE ([5]; rate 0.0156 kg/ha) | Preemergence herbicidal rating IPOHE ([5]; rate 0.0313 kg/ha) | Herbicidal rating CASOB (CASOB (Sicklepod) [6]; rate 0.0156 kg/ha) | Preemergence herbicidal rating CASOB (CASOB (Sicklepod) [7]; rate 0.0156 kg/ha) | Preemergence herbicidal rating CASOB (CASOB (Sicklepod) [7]; rate 0.0313 kg/ha) | Preemergence herbicidal rating CASOB (CASOB (Sicklepod) [7]; rate 0.0625 kg/ha)
2.0: Preemergence herbicidal rating TRZAWR ([3]; rate 0.0313 kg/ha) | Preemergence herbicidal rating GLXMAW ([4]; rate 0.2500 kg/ha)
4.0: Preemergence herbicidal rating ZEAMX (ZEAMX (Corn, Field); rate 0.0313 kg/ha) | herbicidal effect rating, SAGPY ([1]; 0.0625 kg/ha) | herbicidal effect rating, SAGPY ([1]; 0.1250 kg/ha) | Preemergence herbicidal rating ECHCG (ECHCG (Barnyardgrass); rate 0.0625 kg/ha) | Preemergence herbicidal rating IPOHE ([5]; rate 0.1250 kg/ha)
6.0: Preemergence herbicidal rating ZEAMX (ZEAMX (Corn, Field); rate 0.0625 kg/ha) | herbicidal effect rating, SAGPY ([1]; 0.2500 kg/ha)
3.0: Herbicidal rating GALAP (GALAP (Galium); rate 0.0625 kg/ha) | Preemergence herbicidal rating TRZAWR ([3]; rate 0.0625 kg/ha) | Preemergence herbicidal rating IPOHE ([5]; rate 0.0625 kg/ha)
7.0: Preemergence herbicidal rating ZEAMX (ZEAMX (Corn, Field); rate 0.1250 kg/ha) | Preemergence herbicidal rating TRZAWR ([3]; rate 0.1250 kg/ha) | Preemergence herbicidal rating ECHCG (ECHCG (Barnyardgrass); rate 0.1250 kg/ha) | Herbicidal rating CASOB (CASOB (Sicklepod) [6]; rate 0.0625 kg/ha)
8.0: Preemergence herbicidal rating ZEAMX (ZEAMX (Corn, Field); rate 0.2500 kg/ha) | Preemergence herbicidal rating TRZAWR ([3]; rate 0.2500 kg/ha)
